Key:
Type in all cases: cell-based, human
[1] = test system: MDA-MB-231 cells; assay: Clonogenic survival assay; details: 0.3–2 μM H182, treated once
Procedure: These studies were performed as previously reported. Details are presented in Supplementary Information, “Methods”.
These studies were performed as previously reported . For the clonogenic survival assay, briefly, cells were seeded as single-cell (500 cells per well) in 6 -well plates, then untreated (DMSO control) or treated once the following day with H182 and allowed to grow until large colonies were visible, which were stained with crystal violet for 4 h and imaged with a FluorChem imaging system (Protein Simple, Santa Clara, CA).
For the soft-agar assay, briefly, each well contained a bottom layer of 1 ml of 1% agarose in complete DMEM and a top layer of 1 ml of 0.5% agarose in complete DMEM containing 500 cells. After the upper agar layer containing cells solidified, 1 ml culture medium containing H182 (0-2 µM) or DMSO (control) was overlaid, and the cultures were maintained at 37 °C in the incubator, with the medium replacement every 3-4 days with fresh medium that contains the inhibitor or not. Cells were allowed to culture for 3-4 weeks until large colonies were visible under microscope. The colonies were stained with crystal violet and […]
1.2.8. Confocal microscopy studies
4 cells in 1 ml) in logarithmic
These studies were performed as previously reported. […]

[2] = test system: pS727Stat3, pYStat1, pY416Src, pY1068EGFR, pShc, pErk1/2MAPK, pS473Akt, and pJAK2; assay: Western blotting for other signaling proteins in TNBC cells; details: MDA-MB-231 and MDA-MB-468, 0.5–3 μM H182 for 2 h
Procedure: (§1) These studies were performed as previously described. Details are presented in Supplementary Information, “Methods”.
We sought to assess any non-specific effects of the azetidine compounds. […] Samples of equal total protein were subjected to SDS-PAGE and Western blotting analysis. […] The total protein levels were unchanged, and the tubulin, β-actin, and GAPDH levels show equal protein loading.
(§2) These studies were performed as previously described [1 -3] . Briefly, snap-frozen tumor tissues or cultured cells treated or not were harvested and whole-cell or tissue lysates were prepared in radioimmunoprecipitation assay (RIPA) buffer. Samples of equal total protein were subjected to SDS - PAGE and immunoblotting analysis. Primary antibodies used were anti- Stat3, pY705-Stat3, pS727Stat3, […]
(§3) Akt, pT202/Y204Erk1/2 (p44/42), Erk1/2, PARP , caspase 3, c-Myc, survivin, VEGF, β-actin, α/β-tubulin, and GAPDH. For the studies of the effects of cell density and confluence on pY705Stat3, cells were seeded […] in culture dishes. The next day, cells were untreated (DMSO control, […]
(§4) concentration of H182 for 6 h and then treated with 0- 100 nM docetaxel or 0-20 µM cisplatin for a total of 72 h. Viable cell numbers were assessed by a CyQuant cell proliferation kit according to the manufacturer’s instructions (Thermo/Life Technologies Corp, Carlsbad, CA). […]

[3] = test system: MDA-MB-231 cells; assay: Immunoblotting for cleaved PARP and caspase 3; details: 1 μM for 0–24 h or increasing concentration for 2 h
Procedure: as §1
Aberrantly-active Stat3 promotes tumor cell growth and proliferation, survival, migration, invasion, and metastasis.
as §2, §3
0.1%) or treated at the same time with 1 or 2 µM H182, allowed to incubate for the indicated time and then harvested for whole-cell lysate preparation and SDS -PAGE / immunoblotting analy sis. […]
as §4

O=C([C@H]1CCN1S(=O)(=O)c1c(F)c(F)c(F)c(F)c1F)N(Cc1ccc(C2CCCCC2)cn1)c1ccc2c(=O)[nH]ncc2c1 [Compound H182]
Effect on anchorage-dependent colony formation [1]: potently and dose-dependently inhibited
Effect on constitutive or EGF-induced pS727Stat3, pYStat1, pY416Src, pY1068EGFR, pShc, pErk1/2MAPK, pS473Akt, and pJAK2 [2]: no inhibitory effect
Cleaved PARP and caspase 3 [3]: moderate levels
